The assay has as its system skin incision. Description: Mini-pig skin incision model, Von Frey test. The assay is classed as in vivo. The conditions noted are these: subcutaneous into both sides of incision. Here is the method:
Mini-pig skin incision model was used to test the anesthetic efficacy of some formulations. Mini pig was used in this model due to the similarities of their skin to humans. Mini pigs (9-12 kg) were randomly assigned for test groups. Under isoflurane anesthesia and sterile surgical conditions, a 6 cm long incision was made through skin in the rear left flank. The test drugs were administered subcutaneously into both sides of incision. The wound was then closed by continuous suture. After surgery the mini pig received antibiotic amoxicillin injection for 3 days as wound care. The efficacy of test drugs was evaluated by Von Frey test. At desired time point, an electrical automatic Von Frey was used to apply force about 0.5 cm to the incision. If operator observed the contraction of skin/muscle, or the applied force was over 100 g, the operator stopped the test and record the read of applied force. The response baseline of all mini pigs was tested and the pain threshold was set to the middle of baseline and 100 g. If the response force was higher than pain threshold value then there was anesthesia efficacy, vice versa.

SMILES strings stand for the structures. Counter-ions that a name gives are not always drawn.

With `CCCCN1CCCC[C@H]1C(=O)Nc1c(C)cccc1C` [levobupivacaine HCl], the “duration of anesthesia efficacy” value is given as “about 4 hours”.
